Assay results as given in PubChem BioAssay (NCI).
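Exposure lasted 48 hours, with cells grown in 96-well plates and compounds tested at five concentrations. At the TGI there is no net growth.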

Assays:
Assay in all cases: NCI tumour cell line growth inhibition, 48 h
[1] = tested on: CCRF-CEM leukemia
[2] = tested on: IGROV1 ovarian
[3] = tested on: SNB-75 CNS
[4] = tested on: SR leukemia
[5] = tested on: HOP-62 NSCLC
[6] = tested on: SK-OV-3 ovarian
[7] = tested on: 786-0 renal
[8] = tested on: HS 578T breast
[9] = tested on: HCT-15 colon
[10] = tested on: NCI-H460 lung
[11] = tested on: ACHN renal
[12] = tested on: SK-MEL-28 melanoma
[13] = tested on: OVCAR-8 ovarian
[14] = tested on: MDA-MB-435
[15] = tested on: OVCAR-5 ovarian

| SMILES | TGI [1] [µM] | TGI [2] [µM] | TGI [3] [µM] | TGI [4] [µM] | TGI [5] [µM] | TGI [6] [µM] | TGI [7] [µM] | TGI [8] [µM] | TGI [9] [µM] | TGI [10] [µM] | TGI [11] [µM] | TGI [12] [µM] | TGI [13] [µM] | TGI [14] [µM] | TGI [15] [µM] |
| --- | --- | --- | --- | --- | --- | --- | --- | --- | --- | --- | --- | --- | --- | --- | --- |
| NC(=O)NC(=O)c1cccc(NC(=O)CCl)c1 | 4.16 | 12.7 | 7.06 | 3.92 | 4.71 | 8.88 | 3.91 | > 21.7 | 9.73 | 3.92 | 12.9 | > 62.2 | 12.7 | 5.93 | 9.49 |
| COc1cc(-c2ccccc2)cn2c1nc1ccccc12 | 70.7 | 55.9 | 43.2 | 99.6 | 43.6 | 59.7 | 34.7 | 71.4 | 43.2 | 49.4 | 49.2 | 33.2 | 64.4 | 43.4 | 31.7 |
| CC(C)CC1NC(=O)CCC(NC(=O)C(Cc2ccc(O)cc2)NC(=O)OCc2ccccc2)C(=O)NC(Cc2ccccc2)C(=O)NC(Cc2ccccc2)NC1=O (stereo unspecified) | > 100 | > 100 | > 100 | > 100 | > 100 | > 100 | > 100 | > 100 | > 100 | > 100 | > 100 | > 100 | > 100 | > 100 | > 100 |
| CC1(C)CCC[C@@]2(C)C1CC[C@@]1(CO1)[C@@H]2/C=C\C(C=O)CC=O (stereo partly specified) | > 68.7 | > 100 | > 100 | 99.2 | > 100 | > 100 | > 100 | > 100 | > 100 | > 100 | > 100 | > 100 | > 100 | > 100 | > 100 |
| Cc1nn(C(=O)c2ccc(Cl)cc2)c2c1C(c1ccc(Cl)cc1)SC(N)=N2 (stereo unspecified) | > 10 | > 10 | > 10 | > 10 | > 10 | > 10 | > 10 | > 10 | > 10 | > 10 | > 10 | > 10 | > 10 | > 10 | > 10 |
| COc1ccc(NC(/C(C(=O)C(=O)/C=C(\O)c2ccccc2)=C(\O)c2ccccc2)c2ccc(OC)cc2)cc1 (stereo unspecified) | > 100 | > 100 | 51.9 | > 100 | > 100 | > 100 | > 100 | > 100 | > 100 | > 100 | > 100 | > 100 | > 100 | 59.1 | > 100 |
| CCOC(=O)c1csc(-c2cn(C)c3c2C(=O)C(OC)=CC3=O)n1 | > 100 | > 100 | > 83.4 | > 100 | 74 | > 100 | > 100 | > 58.8 | > 100 | > 41.6 | > 100 | > 100 | > 100 | 11.1 | > 100 |
| CC(=O)OC(C)c1cc2c(s1)C(=O)c1ccsc1C2=O (stereo unspecified) | 0.653 | 1.55 | 0.301 | 0.365 | 0.281 | 3.7 | 0.978 | 0.422 | 0.272 | – | 0.31 | – | 0.68 | 0.0301 | 0.994 |
| COc1cc(OC)nc(-n2c(N)c(C(=O)O)c3ccc([N+](=O)[O-])cc3c2=O)n1 | > 100 | > 100 | > 100 | > 100 | > 100 | > 100 | > 100 | > 100 | > 100 | > 100 | > 100 | > 100 | > 100 | > 100 | > 100 |
| CCOC(=O)C1=NNC(C(=O)c2ccccc2)C1c1ccccc1 (stereo unspecified) | > 100 | > 34 | 16.7 | > 100 | 26 | 33.1 | 6.3 | 20.5 | 5.94 | – | 3.71 | 3.67 | 22 | 3.89 | 17.4 |
| c1cc2c3ccsc3c3sccc3c2s1 | > 100 | > 100 | > 100 | > 100 | 70.5 | > 100 | > 100 | 71.8 | > 100 | > 100 | > 100 | > 100 | > 100 | > 100 | > 100 |
| COc1ccc(NC(=O)NNS(=O)(=O)c2ccc(C)cc2)cc1 | > 100 | > 100 | > 100 | > 100 | > 100 | > 100 | > 100 | > 100 | > 100 | > 100 | > 100 | > 100 | > 100 | > 100 | > 100 |
| Oc1cccc2ccc(Br)nc12 | > 100 | > 100 | > 100 | > 100 | > 100 | > 100 | > 100 | > 100 | > 100 | > 100 | > 100 | > 100 | > 100 | > 100 | > 100 |
| C1=Cc2cccc3occ(c23)C=C1 | 49.9 | > 100 | – | 43 | > 100 | > 100 | > 100 | > 100 | > 100 | > 100 | > 100 | > 100 | > 100 | > 100 | > 100 |
| Cc1ccc2c(c1)CC1(C2)Cc2ccc(C)cc2C1=O (stereo unspecified) | 62.3 | > 100 | 84.3 | 57 | 97.8 | > 100 | 63 | > 100 | 79.5 | 55.5 | > 100 | > 100 | > 100 | > 100 | > 100 |
| Cc1ccc(O)c(C2=NNC(c3cccc(Cl)c3)C2)c1 (stereo unspecified) | > 100 | 48.8 | – | > 100 | > 100 | > 100 | > 100 | 86.3 | 29.3 | > 100 | > 100 | – | > 100 | 44.5 | > 100 |

| SMILES | TGI [1] [µM] | TGI [2] [µM] | TGI [3] [µM] | TGI [4] [µM] | TGI [5] [µM] | TGI [6] [µM] | TGI [7] [µM] | TGI [8] [µM] | TGI [9] [µM] | TGI [10] [µM] | TGI [11] [µM] | TGI [12] [µM] | TGI [13] [µM] | TGI [14] [µM] | TGI [15] [µM] |
| --- | --- | --- | --- | --- | --- | --- | --- | --- | --- | --- | --- | --- | --- | --- | --- |
| COC1OC(Cn2cc([N+](=O)[O-])nc2C)C(O)C(O)C1O (stereo unspecified) | > 100 | > 100 | – | > 100 | > 100 | > 100 | > 100 | > 100 | > 100 | > 100 | > 100 | > 100 | – | > 100 | > 100 |
| N#CC(C#N)=Cn1c(=S)[nH]c2ccc([N+](=O)[O-])cc21 | > 100 | > 100 | > 100 | > 100 | > 100 | > 100 | > 100 | > 100 | – | > 100 | > 100 | > 100 | > 100 | > 100 | > 100 |
| Cc1cnc2[nH]c(-c3ccc(Cl)cc3)cc(=O)c2c1 | > 100 | > 100 | > 100 | > 100 | > 100 | > 100 | > 100 | > 100 | > 40.8 | > 100 | > 100 | > 100 | > 100 | 1.97 | > 31.6 |
| Cc1ccc(S(=O)(=O)NNC(=O)Nc2ccc([N+](=O)[O-])cc2)cc1 | > 100 | > 100 | > 100 | > 100 | 95.4 | – | 64.6 | > 100 | > 100 | 87.6 | > 100 | > 100 | 42.3 | > 100 | > 100 |
| O=c1[nH]c(=O)n(C2CC(O)C(COP(=O)(OCC(Cl)(Cl)Cl)OCC(Cl)(Cl)Cl)O2)cc1F (stereo unspecified) | > 100 | > 100 | > 100 | > 100 | 1.53 | > 100 | > 100 | > 100 | > 100 | > 100 | > 100 | > 100 | > 100 | > 100 | > 100 |
| CCOC(=O)CCc1ccc(NC(=O)/C=C/c2ccc([N+](=O)[O-])o2)cc1 | 0.957 | > 31.1 | 11.2 | 0.475 | 11 | > 100 | 1.72 | > 100 | 4.05 | 4.78 | 2.73 | 3.39 | 2.28 | 0.845 | 6.4 |
| CCOC(=O)c1nc2cc(F)cc(F)c2[nH]c1=O | > 100 | > 100 | > 100 | > 100 | > 100 | > 100 | > 100 | > 100 | > 100 | > 100 | > 100 | > 100 | > 100 | > 100 | > 100 |
| COC(=O)/C(C#N)=C/c1cc(C(C)(C)C)c(O)c(C(C)(C)C)c1 | 9.69 | > 100 | 17.1 | 11 | 11.3 | 8.04 | 12.2 | > 37 | 13 | 5.75 | > 31.3 | 15.4 | 33.6 | 18.4 | 8.51 |
| Nc1ncc2c(n1)-c1ccccc1OC2N1CCOCC1 (stereo unspecified) | > 100 | > 100 | > 100 | > 100 | > 100 | > 100 | > 100 | > 100 | > 100 | > 100 | > 100 | > 100 | > 100 | > 100 | > 100 |
| COC(=O)[C@H](C)N(C)C(=O)[C@H](C)N1[C@@H](c2ccccc2)COC1(C)C | > 100 | > 100 | > 100 | > 100 | > 100 | > 100 | > 100 | > 100 | > 100 | > 100 | > 100 | > 100 | > 100 | > 100 | > 100 |
| CC[C@]1(Cc2ccc(OC)c(OC)c2)C=[N+]([O-])O[C@H](OCc2ccccc2)[C@@H]1OC(C)=O | 55.6 | > 100 | > 100 | 48.2 | > 100 | > 100 | > 100 | 60.5 | > 100 | > 100 | > 100 | 84.6 | > 100 | > 100 | > 100 |
| Cc1ccc(O)c(C(c2cc(C)ccc2O)c2cc([N+](=O)[O-])ccc2O)c1 | 91 | 24.4 | 21.2 | 39.1 | 26.3 | 37 | 33.9 | 37.9 | 36.1 | – | 27.1 | 39.6 | 25.5 | 45.3 | 28.8 |
| COC1C(=O)N(SC)C1c1ccccc1Cl (stereo unspecified) | 35.1 | 38.6 | – | 42.4 | > 100 | > 100 | 32.9 | > 100 | 45.1 | > 100 | 33.9 | > 100 | 39.4 | 53.9 | 32.2 |
| N#Cc1c(N)c2c(c(-c3ccccc3)c1-c1ccccc1)C(=O)N(O)C2=O | > 100 | 75.2 | > 100 | > 100 | – | – | > 100 | 99.6 | > 100 | > 100 | > 100 | > 100 | > 100 | > 100 | > 100 |
| C=CCN1C(=O)CS/C1=N\NC(=O)CSc1nc2ccccc2c(=O)n1CC | > 100 | > 100 | > 100 | > 100 | > 100 | > 100 | > 100 | > 100 | > 100 | 44.4 | > 100 | > 100 | > 100 | > 100 | > 100 |
